Like-named read-outs stand apart in the source and are kept apart here.
Assays:
log P = format: physicochemical; details: Table 2
[1] = Clearance (CL) / pharmacokinetics; format: in vivo, mice; details: mouse, plasma, iv; Table 2
Procedure: (§1) Exemplary compounds of the presently-disclosed subject matter were assessed for activity, including clearance, potency, and selectivity. Results from studies are compiled in Tables 2-4.
(§2) Desirable clearance was identified at lower values of mL hr^−1kg^−1 (e.g., about ≤10 mL hr^−1 kg^−1), desirable potency was identified at lower values of IC50 (e.g., about ≤10 nM in TC32 cells), and desired selectivity was identified at higher ratios of IC50 in PC3/IC50 in TC32 (e.g. about >10).
Pharmacokinetics of exemplary compounds of the presently-disclosed subject matter were studied in mice following bolus IV dosing. Groups of three mice were administered the compound(s) and blood samples were collected via saphenous bleed. Plasma was separated by centrifugation and extracted to quantitate analytes by LC/MS/MS. Sample analysis followed upon the system meeting system suitability criteria customary for fit for purpose analytical methods. FIG. 1A includes data comparing YL-C09 to mithramycin (MTM) dosed separately. FIG. 1B includes data for YL-B171, YL-C110 and MTM dosed in cassette format.

TC32 cells = test: Potency IC50 in TC32 cells and selectivity; format: cell-based; details: Homo sapiens, TC-32, Table 2, read-out: IC50 TC32
Procedure: as §1, §2

PC3 [2] = test: IC50 in PC3 cells; format: cell-based; details: Homo sapiens, PC-3, read-out: IC50 PC2, Table 2; head prints PC2, text PC3
Procedure: as §1, §2

TC32 = test: Cytotoxicity, resazurin fluorescence, TC32; format: cell-based; details: Homo sapiens, TC-32, 72 h
Procedure: (§3) Exemplary compounds of the presently-disclosed subject matter were assessed for cytotoxicity (Table 5) in Ewing sarcoma (TC32) and non-Ewing (PC3 prostate cancer). […] Cells (1000-5000/well) were seeded in 96-well plates and allowed to attach and grow for 24 hr prior to adding compounds in half-log increments from 0.3 nM-10 μM. Cell viability was assessed after 72 hr continuous incubation with compounds using resazurin fluorescence. GI50 values were estimated using GraphPad Prism.

PC3 [3] = test: Cytotoxicity, resazurin fluorescence, PC3; format: cell-based; details: Homo sapiens, PC-3, 72 h
Procedure: as §3

TC71 = test: Cytotoxicity, resazurin fluorescence, TC71; format: cell-based; details: Homo sapiens, TC-71; Table 6; 72 hr; EWS cells
5838 = test: Cytotoxicity, resazurin fluorescence, 5838; format: cell-based; details: Table 6; 72 hr; express EWS-ERG
A673 = test: Cytotoxicity, resazurin fluorescence, A673; format: cell-based; details: Homo sapiens, A673; Table 6; 72 hr; EWS cells
RDES = test: Cytotoxicity, resazurin fluorescence, RDES; format: cell-based; details: RD-ES; Table 6; 72 hr; EWS cells
SK.ES1 = test: Cytotoxicity, resazurin fluorescence, SK.ES1; format: cell-based; details: Homo sapiens, SK-ES1; Table 6; 72 hr; EWS cells
ES3 = test: Cytotoxicity, resazurin fluorescence, ES3; format: cell-based; details: Table 6; 72 hr; EWS cells
ES4 = test: Cytotoxicity, resazurin fluorescence, ES4; format: cell-based; details: Table 6; 72 hr; EWS cells
ES7 = test: Cytotoxicity, resazurin fluorescence, ES7; format: cell-based; details: Homo sapiens, ES7; Table 6; 72 hr; EWS cells
ES8 = test: Cytotoxicity, resazurin fluorescence, ES8; format: cell-based; details: Homo sapiens, ES8; Table 6; 72 hr; EWS cells
EWS cells = test: Cytotoxicity, average over Ewing (EWS) cell panel; format: cell-based; details: Table 6; 72 hr; average of EWS cells
Procedure: as §3

BL1395 = test: Cytotoxicity, resazurin fluorescence, BL1395; format: cell-based; details: read-out: GI50 BL1395
A549 = test: Cytotoxicity, resazurin fluorescence, A549; format: cell-based; details: Homo sapiens, read-out: GI50 A549
DU145 = test: Cytotoxicity, resazurin fluorescence, DU145; format: cell-based; details: Homo sapiens, read-out: GI50 DU145
H460 = test: Cytotoxicity, resazurin fluorescence, H460; format: cell-based; details: Homo sapiens, read-out: GI50 H460
Hela = test: Cytotoxicity, resazurin fluorescence, Hela; format: cell-based; details: Homo sapiens, HeLa, read-out: GI50 Hela
HepG2 = test: Cytotoxicity, resazurin fluorescence, HepG2; format: cell-based; details: Homo sapiens, read-out: GI50 HepG2
LNCap = test: Cytotoxicity, resazurin fluorescence, LNCap; format: cell-based; details: Homo sapiens, LNCaP, read-out: GI50 LNCap
PANC1 = test: Cytotoxicity, resazurin fluorescence, PANC1; format: cell-based; details: Homo sapiens, read-out: GI50 PANC1
Non EWS cells = test: Cytotoxicity, average over non-Ewing cell panel; format: cell-based; details: read-out: GI50 Average, Non EWS cells
Procedure: as §3

HS68 = test: Cytotoxicity, 72 hr resazurin assay, HS68 fibroblast; format: cell-based
Text: (§4) A fibroblast cell line (HS68 (FIG. 2E)) was used as a non-tumor control. The area under the concentration-efficacy curve (AUC; possible range of 0-20000) was used to estimate an alternate metric to GI50 for cases of shallow efficacy (e.g., the limited effect in HS68 cells).

JR1 = test: Cytotoxicity, 72 hr resazurin assay, JR1 embryonal rhabdomyosarcoma; format: cell-based
Text: as §4

RD = test: Cytotoxicity, 72 hr resazurin assay, RD embryonal rhabdomyosarcoma; format: cell-based
Text: as §4

RH30 = test: Cytotoxicity, 72 hr resazurin assay, RH30 alveolar rhabdomyosarcoma; format: cell-based
Text: as §4

RH41 = test: Cytotoxicity, 72 hr resazurin assay, RH41 alveolar rhabdomyosarcoma; format: cell-based
Text: as §4

rhabdomyosarcoma cells = test: Cytotoxicity, 72 hr resazurin assay, four rhabdomyosarcoma cell lines; format: cell-based; details: JR1, RD, RH30, RH41, read-out: GI50 range in the four cell lines tested
Text: as §4

[4] = read-out: GI50 TC32, Table 6, EWS cells
[5] = Table 6, non EWS cells, read-out: GI50 PC3
[6] = Table 6, 72 hr, lymphocyte origin
[7] = A549, Table 6, 72 hr, non EWS cells
[8] = DU-145, Table 6, 72 hr, non EWS cells
[9] = NCI-H460, Table 6, 72 hr, non EWS cells
[10] = HepG2, Table 6, 72 hr, hepatic origin
[11] = PANC-1, Table 6, 72 hr, non EWS cells
[12] = Table 6, 72 hr, average of non EWS cells
[13] = area under concentration-efficacy curve, possible range 0-20000

Structure (SMILES) | logP (log P) | clearance [1] [mL/min/kg] | IC50 (TC32 cells) [nM] | IC50 (PC3 [2]) [nM] | GI50 (TC32; read-out: GI50 TC32, Table 5) [nM] | GI50 (TC32; [4]) [nM] | GI50 (PC3 [3]; read-out: GI50 PC3, Table 5) [nM] | GI50 (TC71) [nM] | GI50 5838 [nM] | GI50 (A673) [nM] | GI50 (RDES) [nM] | GI50 (SK.ES1) [nM] | GI50 (ES3) [nM] | GI50 (ES4) [nM] | GI50 (ES7) [nM] | GI50 (ES8) [nM] | GI50 (EWS cells) [nM] | GI50 (PC3 [3]; [5]) [nM] | GI50 (BL1395; [6]) [nM] | GI50 (A549; [7]) [nM] | further results
CO[C@H](C(=NOCCNC(=O)c1cc2cc(F)ccc2[nH]1)[C@@H](O)[C@@H](C)O)[C@@H]1Cc2cc3cc(O[C@H]4C[C@@H](O[C@H]5C[C@@H](O)[C@H](O)[C@@H](C)O5)[C@H](O)[C@@H](C)O4)c(C)c(O)c3c(O)c2C(=O)[C@H]1O[C@H]1C[C@@H](O[C@H]2C[C@@H](O[C@H]3C[C@](C)(O)[C@H](O)[C@@H](C)O3)[C@@H](O)[C@@H](C)O2)[C@H](O)[C@@H](C)O1 [YL-B168] | 1.62 | 0.717 | 2.15 | 19.5 | 30 | 30.3 | 65 | 258 | 40.2 | 34.5 | 32.9 | 39.2 | 56.7 | 30.9 | 76.9 | 68.8 | 66.9 | – | – | – | GI50 (PC3 [3]; read-out: GI50 PC3, Table 6, non EWS cells): 65.2 nM; GI50 (BL1395; Lymphocyte, 72 h): 49.9 nM; GI50 (A549; A549, 72 h): 358 nM; GI50 (DU145; DU-145, 72 h): 90.5 nM; GI50 (H460; NCI-H460, 72 h): 116 nM; GI50 (Hela; 72 h): 470 nM; GI50 (HepG2; HepG2, 72 h): > 1000 nM; GI50 (LNCap; 72 h): 275 nM; GI50 (PANC1; PANC-1, 72 h): 105 nM; GI50 (Non EWS cells; 72 h): 191 nM
CO[C@H](C(=NOCCNC(=O)c1cc2cc(OC(F)(F)F)ccc2[nH]1)[C@@H](O)[C@@H](C)O)[C@@H]1Cc2cc3cc(O[C@H]4C[C@@H](O[C@H]5C[C@@H](O)[C@H](O)[C@@H](C)O5)[C@H](O)[C@@H](C)O4)c(C)c(O)c3c(O)c2C(=O)[C@H]1O[C@H]1C[C@@H](O[C@H]2C[C@@H](O[C@H]3C[C@](C)(O)[C@H](O)[C@@H](C)O3)[C@@H](O)[C@@H](C)O2)[C@H](O)[C@@H](C)O1 [YL-B171] | 2.93 | – | 4.62 | 10.7 | 26 | 25.6 | 49 | 19.5 | 37.1 | 51 | 32.7 | 35.4 | 31.5 | 20.4 | 26.7 | 36.7 | 31.7 | 49.3 | 51.5 | 114 | GI50 (DU145; [8]): 32.5 nM; GI50 (H460; [9]): 69.5 nM; GI50 (Hela; Table 6, 72 hr, non EWS cells): 105 nM; GI50 (HepG2; [10]): 202 nM; GI50 (LNCap; Table 6, 72 hr, non EWS cells): 117 nM; GI50 (PANC1; [11]): 138 nM; GI50 (Non EWS cells; [12]): 97.6 nM
COC(C(=NOCc1cc2ccccc2[nH]1)C(O)C(C)O)C1Cc2cc3cc(OC4CC(OC5CC(O)C(O)C(C)O5)C(O)C(C)O4)c(C)c(O)c3c(O)c2C(=O)C1OC1CC(OC2CC(OC3CC(C)(O)C(O)C(C)O3)C(O)C(C)O2)C(O)C(C)O1 (stereo not drawn) [YL-C09] | 1.9 | – | 1.96 | 5.65 | 17 | – | – | 11.5 | 27.5 | 38.1 | 16.8 | 18 | 19.2 | 16.6 | 14.5 | 31.5 | 21.1 | 19.3 | 24.1 | 22.6 | GI50 (H460; [9]): 21.5 nM; GI50 (Hela; Table 6, 72 hr, non EWS cells): 27.1 nM; GI50 (HepG2; [10]): 80.1 nM; GI50 (LNCap; Table 6, 72 hr, non EWS cells): 63.3 nM; GI50 (PANC1; [11]): 33.4 nM; GI50 (Non EWS cells; [12]): 34.5 nM; GI50 (HS68; Homo sapiens, Hs68, fibroblast, non-tumor control): 1240 nM; AUC HS68 (HS68; [13]): 15517; AUC JR1 (JR1; [13]): 8554; GI50 (JR1; embryonal): 15 nM; GI50 (RD; Homo sapiens, RD, embryonal): 20.7 nM; AUC RD (RD; [13]): 8443; GI50 (RH30; Rh30, alveolar): 24.3 nM; AUC RH30 (RH30; [13]): 7400; GI50 (RH41; Homo sapiens, Rh41, alveolar): 24.1 nM; AUC RH41 (RH41; [13]): 9239; GI50 (rhabdomyosarcoma cells): 15 to 25 nM
COC(C(=NOCCNC(=O)c1cc2cc(Br)ccc2[nH]1)C(O)C(C)O)C1Cc2cc3cc(OC4CC(OC5CC(O)C(O)C(C)O5)C(O)C(C)O4)c(C)c(O)c3c(O)c2C(=O)C1OC1CC(OC2CC(OC3CC(C)(O)C(O)C(C)O3)C(O)C(C)O2)C(O)C(C)O1 (stereo not drawn) [YL-B169] | 2.37 | 0.467 | 1.16 | 20.6 | 18 | 18.4 | 34 | 152 | 30.2 | 26 | 29.1 | 24.4 | 38.4 | 25.1 | 25.6 | 68.7 | 43.8 | 34 | 31.3 | 558 | GI50 (DU145; [8]): 49.9 nM; GI50 (H460; [9]): 78.7 nM; GI50 (Hela; Table 6, 72 hr, non EWS cells): 176 nM; GI50 (HepG2; [10]): 306 nM; GI50 (LNCap; Table 6, 72 hr, non EWS cells): 239 nM; GI50 (PANC1; [11]): 62.1 nM; GI50 (Non EWS cells; [12]): 171 nM
CO[C@H](C(=NOCCNC(=O)c1[nH]c2ccc(F)cc2c1-c1ccc(Cl)cc1)[C@@H](O)[C@@H](C)O)[C@@H]1Cc2cc3cc(O[C@H]4C[C@@H](O[C@H]5C[C@@H](O)[C@H](O)[C@@H](C)O5)[C@H](O)[C@@H](C)O4)c(C)c(O)c3c(O)c2C(=O)[C@H]1O[C@H]1C[C@@H](O[C@H]2C[C@@H](O[C@H]3C[C@](C)(O)[C@H](O)[C@@H](C)O3)[C@@H](O)[C@@H](C)O2)[C@H](O)[C@@H](C)O1 [YL-C118] | 3.64 | 0.467 | 36.6 | 582 | 232 | – | 417 | – | – | – | – | – | – | – | – | – | – | – | – | – | –
